# Test results as given in patent publication US7271165B2, “Rifamycin analogs and uses thereof” (priority 2003, dated 2007).
# Assays:
# S. aureus = assay: MIC assay, S. aureus; format: cell-based, Staphylococcus aureus
# E. faecalis = assay: MIC assay, E. faecalis; format: cell-based, Enterococcus faecalis
# E coli = assay: MIC assay, E coli; format: cell-based
# S. pneumo. = assay: MIC assay, S. pneumo.; format: cell-based, Streptococcus pneumoniae
# H. flu = format: cell-based, H. influenza; details: H. flu
Structure (SMILES),MIC (μg/mL) S. aureus (S. aureus),MIC (μg/mL) E. faecalis (E. faecalis),MIC (μg/mL) E coli (E coli),MIC (μg/mL) S. pneumo. (S. pneumo.),MIC (μg/mL) H. flu (H. flu)
CCC1CN(c2cc(O)c3nc4c5c6c7c(C)c(O)c5c(=O)c(c-4oc3c2)NC(=O)C(C)=CC=CC(C)C(O)C(C)C(O)C(C)C(O)C(C)C(OC)C=COC(C)(O7)C6=O)CC(C)N1 (stereo not drawn) [Compound 90],0.004 µg/mL,0.5 µg/mL,4 µg/mL,0.00012 µg/mL,0.25 µg/mL
CCOc1c(N2CCN(CC)CC2)ccc2nc3c4c5c6c(C)c(O)c4c(=O)c(c-3oc12)NC(=O)C(C)=CC=CC(C)C(O)C(C)C(O)C(C)C(O)C(C)C(OC)C=COC(C)(O6)C5=O (stereo not drawn) [Compound 91],0.008 µg/mL,0.5 µg/mL,8 µg/mL,0.0005 µg/mL,0.25 µg/mL
CCOc1c(N2CCN(CCOC)CC2)cc(N2CCN(CCOC)CC2)c2nc3c4c5c6c(C)c(O)c4c(=O)c(c-3oc12)NC(=O)C(C)=CC=CC(C)C(O)C(C)C(O)C(C)C(O)C(C)C(OC)C=COC(C)(O6)C5=O (stereo not drawn) [Compound 92],0.12 µg/mL,8 µg/mL,>8 µg/mL,0.001 µg/mL,2 µg/mL
CCOc1c(N2CCN(CCOC)CC2)ccc2nc3c4c5c6c(C)c(O)c4c(=O)c(c-3oc12)NC(=O)C(C)=CC=CC(C)C(O)C(C)C(O)C(C)C(O)C(C)C(OC)C=COC(C)(O6)C5=O (stereo not drawn) [Compound 93],0.015 µg/mL,1 µg/mL,>8 µg/mL,0.005 µg/mL,0.5 µg/mL
COC1C=COC2(C)Oc3c(C)c(O)c4c(=O)c(c5n(C)c6cc(N7CC(C)NC(C)C7)ccc6nc-5c4c3C2=O)NC(=O)C(C)=CC=CC(C)C(O)C(C)C(O)C(C)C(O)C1C (stereo not drawn) [Compound 94],1 µg/mL,>8 µg/mL,>8 µg/mL,2 µg/mL,4 µg/mL
COC1C=COC2(C)Oc3c(C)c(O)c4c(=O)c(c5oc6cc(N7CCN(C8CCN(C)CC8)CC7)cc(O)c6nc-5c4c3C2=O)NC(=O)C(C)=CC=CC(C)C(O)C(C)C(O)C(C)C(O)C1C (stereo not drawn) [Compound 95],0.015 µg/mL,0.5 µg/mL,>8 µg/mL,0.002 µg/mL,1 µg/mL
COC1C=COC2(C)Oc3c(C)c(O)c4c(=O)c(c5oc6cc(N7CCN(CC8CC8)CC7)cc(O)c6nc-5c4c3C2=O)NC(=O)C(C)=CC=CC(C)C(O)C(C)C(O)C(C)C(O)C1C (stereo not drawn) [Compound 96],0.008 µg/mL,0.06 µg/mL,2 µg/mL,0.0005 µg/mL,0.25 µg/mL
COC1C=COC2(C)Oc3c(C)c(O)c4c(=O)c(c5oc6cc(N7CC(C)NCC7C)cc(O)c6nc-5c4c3C2=O)NC(=O)C(C)=CC=CC(C)C(O)C(C)C(O)C(C)C(O)C1C (stereo not drawn) [Compound 97],0.004 µg/mL,0.12 µg/mL,4 µg/mL,0.0005 µg/mL,0.25 µg/mL
COC1C=COC2(C)Oc3c(C)c(O)c4c(=O)c(c5oc6cc(N7CCN(CCO)CC7)cc(O)c6nc-5c4c3C2=O)NC(=O)C(C)=CC=CC(C)C(O)C(C)C(O)C(C)C(O)C1C (stereo not drawn) [Compound 98],0.008 µg/mL,0.12 µg/mL,8 µg/mL,0.0005 µg/mL,0.25 µg/mL
COC1C=COC2(C)Oc3c(C)c(O)c4c(=O)c(c5oc6cc(N7CCN(c8ccccc8)CC7)cc(O)c6nc-5c4c3C2=O)NC(=O)C(C)=CC=CC(C)C(O)C(C)C(O)C(C)C(O)C1C (stereo not drawn) [Compound 99],0.004 µg/mL,0.06 µg/mL,4 µg/mL,0.001 µg/mL,0.25 µg/mL
COC1C=COC2(C)Oc3c(C)c(O)c4c(=O)c(c5oc6cc(N7CCN(CCN(C)C)CC7)cc(O)c6nc-5c4c3C2=O)NC(=O)C(C)=CC=CC(C)C(O)C(C)C(O)C(C)C(O)C1C (stereo not drawn) [Compound 100],0.03 µg/mL,0.5 µg/mL,>8 µg/mL,0.008 µg/mL,0.12 µg/mL
COC1C=COC2(C)Oc3c(C)c(O)c4c(=O)c(c5sc6cc(N7CCN(C)CC7)ccc6nc-5c4c3C2=O)NC(=O)C(C)=CC=CC(C)C(O)C(C)C(O)C(C)C(O)C1C (stereo not drawn) [Compound 101],0.002 µg/mL,0.12 µg/mL,2 µg/mL,0.00012 µg/mL,0.12 µg/mL
